Series [1] is described as follows: Cytotoxicity against human KG1a cells. Type of series: functional, cell-based. The settings on record: KG-1a.
In a further series the test system is C6. Put plainly: Cytotoxicity against rat C6 cells. Type of series: functional, cell-based.
The subject of series [2] is HL-60. Put plainly: Cytotoxicity against human HL60 cells. Type of series: functional, cell-based.
Series [3] in a line: Chemical stability of the compound in p-toluenesulfonic acid in dichloromethane after 48 hrs. Type of series: physicochemical.
Series [4] has as its system HL-60. Put plainly: Cytotoxicity against human HL60/A cells. Type of series: functional, cell-based.
Series [5] can be described thus: Half life in rat plasma. Type of series: ADME, cell-free.
Series [6] in a line: Half life in human liver microsomes by HPLC-MS/MS analysis in presence of NADPH. Type of series: ADME.
Series [7] can be described thus: Metabolic stability in rat plasma assessed as compound degradation after 420 mins. Type of series: ADME, cell-free. The following applies: read-out: Drug degradation.

Each structure is given as a SMILES string. pIC50: −log10 of the molar value.

For the molecule `C=C1C(=O)O[C@H]2[C@H]1CC/C(CF)=C\CC[C@@]1(C)O[C@@H]21`, the negative logarithm of the IC50 (pIC50) in series [1] was 5.54; with C6, 5.55; with HL-60 [2], 5.70; with HL-60 [4], 5.82. Moreover, in series [3], the Stability entry is “Stable”.

With `C=C1CC[C@H]2C(=C)C(=O)O[C@@H]2[C@@H]2O[C@]2(C)CCC1F` (some centres undefined), the negative-log IC50 (pIC50) in series [1] was 5.07; in the series with C6, 4.95; in the series with HL-60 [2], 4.92; with HL-60 [4], 5.04. For the same molecule, in series [3], the Stability entry is on record as “Stable”.

As for `C=C1C(=O)O[C@H]2[C@H]1CC/C(C(F)F)=C\CC[C@@]1(C)O[C@@H]21`, the pIC50 in series [1] was 5.74; in the series with C6 it was 5.47; with HL-60 [2], 5.70; in the series with HL-60 [4] it was 5.68. For the same molecule, the Stability entry in series [3] is listed as “Stable”.

For `C=C1C(=O)O[C@H]2[C@H]1CC/C(C(F)(F)F)=C\CC[C@@]1(C)O[C@@H]21`, the negative logarithm of the IC50 (pIC50) in series [1] was 5.70; in the series with C6, 5.52; with HL-60 [2], 5.68; in the series on HL-60 [4] it was 5.70. Moreover, the half-life in series [5] came out at 0.338 h; in series [6], 1.43 h. Also, the Stability result in series [3] was “Stable”.

On to `C=C1C(=O)O[C@@H]2/C=C(\C)CC/C=C(/C(F)(F)F)CC[C@@H]12`, for which the pIC50 in series [1] was 5.29; with C6, 5.27; in the series with HL-60 [2], 5.30; with HL-60 [4], 5.31.

For `C=C1C(=O)O[C@@H]2C3O[C@]3(C)CC/C=C(\C)CC[C@@H]12` (some centres undefined), the negative logarithm of the IC50 (pIC50) in series [1] is 5.64; in the series on C6 it was 5.60; in the series on HL-60 [2] it was 5.70; with HL-60 [4], 5.70. For the same molecule, the half-life worked out at 0.278 h in series [5] and 1.39 h in series [6]. For the same molecule, the Stability entry in series [3] is recorded as “Unstable”.

Regarding `C/C1=C\CC[C@@]2(C)O[C@H]2[C@H]2OC(=O)[C@@H](C)[C@@H]2CC1`, the half-life in series [5] was > 7 h. In series [7], the metabolised at 7 h worked out at 20%.

Take `C=C1C(=O)O[C@@H]2/C=C(\C)CC/C=C(\C)CC[C@@H]12` [COSTUNOLIDE]: the pIC50 was 5.39 in series [1], 5.39 with C6, 5.68 with HL-60 [2] and 5.23 with HL-60 [4].

These data come from ChEMBL document CHEMBL3603834, “Syntheses and Biological Evaluation of Costunolide, Parthenolide, and Their Fluorinated Analogues” (J Med Chem, 2015).
